Assay [1] concerns the target human α2δ-1 subunit of Cav2.2 calcium channel (Homo sapiens (Human), UniProt P54289). The assay is described as follows: Binding assay to human α2δ-1 subunit of Cav2.2 calcium channel ([3H]-Gabapentin). Conditions: read-out: Ki (nM) α2δ-1. The method, boiled down:
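[3H]-gabapentin binding, 60 min at 27° C; nonspecific binding defined with 10 μM pregabalin. Terminated by filtration on PEI-presoaked GF/C filters, ice-cold 50 mM Tris-HCl pH 7.4 washes, then scintillation counting.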

The target in assay [2] is human norepinephrine transporter (NET) (Homo sapiens (Human), UniProt P23975). The assay is described as follows: Binding assay to human norepinephrine transporter (NET) ([3H]-Nisoxetin). Conditions: Table 2, dual compounds; [3H]-Nisoxetin binding. The method, then: Binding Assay to Human Norepinephrine Transporter (NET).
Human norepinephrine transporter (NET) enriched membranes (5 μg) were incubated with 5 nM of radiolabeled [3H]-Nisoxetin in assay buffer containing 50 mM Tris-HCl, 120 mM NaCl, 5 mM KCl, pH 7.4.
NSB (non specific binding) was measured by adding 1 μM. After 60 min incubation at 4° C., binding reaction was terminated by filtering through Multiscreen GF/C (Millipore) presoaked in 0.5% polyethyleneimine in Vacuum Manifold Station, followed by 3 washes with ice-cold filtration buffer containing 50 mM Tris-HCl, 0.9% NaCl, pH 7.4.
Filter plates were dried at 60° C. for 1 hour and 30 μl of scintillation cocktail were added to each well before radioactivity reading.

Where [3] appears, read: Table 2, dual compounds, [3H]-Gabapentin binding.
The mark [4] stands for this setting: binding to α2δ-1, [3H]-Gabapentin.

Read-outs that look alike come from different tables or passages of the source.

human α2δ-1 subunit of Cav2.2 calcium channel, sequence (P54289 25-1103): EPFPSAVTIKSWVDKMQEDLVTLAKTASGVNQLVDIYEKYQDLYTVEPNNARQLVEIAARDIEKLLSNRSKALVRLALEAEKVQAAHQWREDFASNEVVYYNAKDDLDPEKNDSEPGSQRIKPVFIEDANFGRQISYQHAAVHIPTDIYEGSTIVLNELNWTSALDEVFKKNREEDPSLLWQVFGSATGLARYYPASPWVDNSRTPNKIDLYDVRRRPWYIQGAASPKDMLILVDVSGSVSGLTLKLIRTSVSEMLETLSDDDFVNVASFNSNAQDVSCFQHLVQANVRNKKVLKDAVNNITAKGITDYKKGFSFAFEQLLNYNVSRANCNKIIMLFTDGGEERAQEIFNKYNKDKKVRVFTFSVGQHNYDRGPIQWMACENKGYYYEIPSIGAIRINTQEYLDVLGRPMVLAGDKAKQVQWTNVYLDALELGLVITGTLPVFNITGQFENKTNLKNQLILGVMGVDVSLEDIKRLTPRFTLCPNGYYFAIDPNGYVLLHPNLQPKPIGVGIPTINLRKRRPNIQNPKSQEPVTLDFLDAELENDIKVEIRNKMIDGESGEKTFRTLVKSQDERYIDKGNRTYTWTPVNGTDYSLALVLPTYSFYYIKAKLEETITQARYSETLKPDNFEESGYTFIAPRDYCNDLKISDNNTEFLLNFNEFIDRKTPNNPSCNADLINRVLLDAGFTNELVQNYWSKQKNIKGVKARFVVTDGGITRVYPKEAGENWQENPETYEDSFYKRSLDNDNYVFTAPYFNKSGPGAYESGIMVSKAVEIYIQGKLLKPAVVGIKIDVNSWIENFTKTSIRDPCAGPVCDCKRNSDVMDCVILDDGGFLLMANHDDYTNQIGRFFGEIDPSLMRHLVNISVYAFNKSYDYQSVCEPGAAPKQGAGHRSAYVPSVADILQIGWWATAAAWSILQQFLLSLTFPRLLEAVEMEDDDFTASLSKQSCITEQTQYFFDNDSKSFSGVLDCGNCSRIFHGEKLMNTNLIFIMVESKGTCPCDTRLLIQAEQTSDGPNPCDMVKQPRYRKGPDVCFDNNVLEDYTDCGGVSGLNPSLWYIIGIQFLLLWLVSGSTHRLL
human norepinephrine transporter (NET), sequence (P23975 whole entry): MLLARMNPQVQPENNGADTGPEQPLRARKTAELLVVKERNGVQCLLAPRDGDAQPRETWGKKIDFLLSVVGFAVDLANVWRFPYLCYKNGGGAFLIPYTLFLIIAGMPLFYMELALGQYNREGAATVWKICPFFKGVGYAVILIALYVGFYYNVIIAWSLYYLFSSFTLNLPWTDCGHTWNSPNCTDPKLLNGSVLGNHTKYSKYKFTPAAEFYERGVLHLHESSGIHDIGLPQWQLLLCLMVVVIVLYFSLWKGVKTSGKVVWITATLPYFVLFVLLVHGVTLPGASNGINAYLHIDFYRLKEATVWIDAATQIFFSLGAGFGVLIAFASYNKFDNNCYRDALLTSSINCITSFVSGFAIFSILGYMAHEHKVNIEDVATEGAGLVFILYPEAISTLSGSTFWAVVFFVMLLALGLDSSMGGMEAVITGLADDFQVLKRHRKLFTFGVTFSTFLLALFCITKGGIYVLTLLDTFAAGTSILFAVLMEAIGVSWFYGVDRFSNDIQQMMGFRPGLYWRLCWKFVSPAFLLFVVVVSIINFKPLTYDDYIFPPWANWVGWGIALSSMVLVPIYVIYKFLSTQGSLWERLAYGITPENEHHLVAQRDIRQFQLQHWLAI

As a reminder, the Ki is the dissociation constant of the complex between target and ligand, obtained from inhibition or displacement. With `CNCCC(OCc1cccc(N2CCN(C)c3nc(SC)ncc3C2=O)c1)c1cccs1` (stereo not drawn) [Example 208, 9-Methyl-6-(3-((3-(methylamino)-1-(thiophen-2-yl)propoxy)methyl)phenyl)-2-(methylthio)-6,7,8,9-tetrahydro-5H-pyrimido[4,5-e][1,4]diazepin-5-one], the Ki in assay [1] (setting [3]) was 500 to 3000 nM; in assay [1] (setting [4]), 500 to 3000 nM; in assay [2], 500 to 1000 nM.

For the compound `CNCC[C@@H](OCc1cccc(N2CCN(C)c3nc(SC)ncc3C2=O)c1)c1cccs1` [Example 209, (R)-9-methyl-6-(3-((3-(methylamino)-1-(thiophen-2-yl)propoxy)methyl)phenyl)-2-(methylthio)-6,7,8,9-tetrahydro-5H-pyrimido[4,5-e][1,4]diazepin-5-one], the Ki in assay [1] (setting [3]), in assay [1] (setting [4]) and in assay [2] was 100 to 500 nM throughout.

With `CNCC[C@H](OCc1cccc(N2CCN(C)c3nc(SC)ncc3C2=O)c1)c1cccs1` [Example 210, (S)-9-methyl-6-(3-((3-(methylamino)-1-(thiophen-2-yl)propoxy)methyl)phenyl)-2-(methylthio)-6,7,8,9-tetrahydro-5H-pyrimido[4,5-e][1,4]diazepin-5-one], the Ki in assay [1] (setting [3]) was > 3000 nM; in assay [1] (setting [4]) it was > 3000 nM; in assay [2] it was 100 to 500 nM.

Take `CCNc1ncc2c(n1)N(C)CCN(c1cccc(COC(CNC)c3ccccc3)c1)C2=O` (stereo not drawn) [Example 225, 2-(Ethylamino)-9-methyl-6-(3-((2-(methylamino)-1-phenylethoxy)methyl)phenyl)-6,7,8,9-tetrahydro-5H-pyrimido[4,5-e][1,4]diazepin-5-one]: the Ki in assay [1] (setting [3]) was 500 to 3000 nM; in assay [1] (setting [4]), 500 to 3000 nM; in assay [2] it was > 1000 nM.

On to `CNCC(OCc1cccc(N2CCN(C)c3nc(SC)ncc3C2=O)c1)c1ccccc1` (stereo not drawn) [Example 226, 9-methyl-6-(3-((2-(methylamino)-1-phenylethoxy)methyl)phenyl)-2-(methylthio)-6,7,8,9-tetrahydro-5H-pyrimido[4,5-e][1,4]diazepin-5-one], for which the Ki in assay [1] (setting [3]) was > 3000 nM; in assay [1] (setting [4]), > 3000 nM; in assay [2], 500 to 1000 nM.

In the case of `CCNc1ncc2c(n1)N(C)CCN(c1cccc(CO[C@H](CCN(C)C)c3ccccc3)c1)C2=O` [Example 236, (R)-6-(3-((3-(Dimethylamino)-1-phenylpropoxy)methyl)phenyl)-2-(ethylamino)-9-methyl-6,7,8,9-tetrahydro-5H-pyrimido[4,5-e][1,4]diazepin-5-one], the Ki in assay [1] (setting [3]) was 500 to 3000 nM; in assay [1] (setting [4]) it was 500 to 3000 nM; in assay [2] it was 500 to 1000 nM.

In the case of `CCNc1ncc2c(n1)N(C)CCN(c1cccc(CO[C@@H](CCN(C)C)c3ccccc3)c1)C2=O` [Example 237, (S)-6-(3-((3-(dimethylamino)-1-phenylpropoxy)methyl)phenyl)-2-(ethylamino)-9-methyl-6,7,8,9-tetrahydro-5H-pyrimido[4,5-e][1,4]diazepin-5-one], the values for the Ki in assay [1] (setting [3]), in assay [1] (setting [4]) and in assay [2] were 500 to 3000 nM, 500 to 3000 nM and > 1000 nM, respectively.

Take `CCNc1ncc2c(n1)N(C)CCN(c1cccc(OC(CN(C)C)c3ccccc3)c1)C2=O` (stereo not drawn) [Example 239, 6-(3-(2-(dimethylamino)-1-phenylethoxy)phenyl)-2-(ethylamino)-9-methyl-6,7,8,9-tetrahydro-5H-pyrimido[4,5-e][1,4]diazepin-5-one]: the values for the Ki in assay [1] (setting [3]), in assay [1] (setting [4]) and in assay [2] were > 3000 nM, > 3000 nM and 500 to 1000 nM, respectively.

Turning to `CCNc1ncc2c(n1)N(C)CCN(c1cccc(-n3cc(CN(C)Cc4ccccc4)nn3)c1)C2=O` [Example 243, 6-(3-(4-((benzyl(methyl)amino)methyl)-1H-1,2,3-triazol-1-yl)phenyl)-2-(ethylamino)-9-methyl-6,7,8,9-tetrahydro-5H-pyrimido[4,5-e][1,4]diazepin-5-one], the Ki was 500 to 3000 nM in assay [1] (setting [3]), 500 to 3000 nM in assay [1] (setting [4]) and < 100 nM in assay [2].

For the compound `CCNc1ncc2c(n1)N(C)CCN(c1cccc(-n3cc(CN(C)CCc4ccccc4)nn3)c1)C2=O` [Example 244, 2-(ethylamino)-9-methyl-6-(3-(4-((methyl(phenethyl)amino)methyl)-1H-1,2,3-triazol-1-yl)phenyl)-6,7,8,9-tetrahydro-5H-pyrimido[4,5-e][1,4]diazepin-5-one], the Ki was 500 to 3000 nM in assay [1] (setting [3]), 500 to 3000 nM in assay [1] (setting [4]) and < 100 nM in assay [2].

Take `CCNc1ncc2c(n1)N(C)CCN(c1cccc(-n3cc(CN(C)CC4CC4)nn3)c1)C2=O` [Example 246, 6-(3-(4-(((cyclopropylmethyl)(methyl)amino)methyl)-1H-1,2,3-triazol-1-yl)phenyl)-2-(ethylamino)-9-methyl-6,7,8,9-tetrahydro-5H-pyrimido[4,5-e][1,4]diazepin-5-one]: the inhibition constant (Ki) in assay [1] (setting [3]), in assay [1] (setting [4]) and in assay [2] was 100 to 500 nM in each case.

For the compound `CCNc1ncc2c(n1)N(C)CCN(c1cccc(-n3cc(CN(C)CCc4ccccc4)cn3)c1)C2=O` [Example 252, 2-(ethylamino)-9-methyl-6-(3-(4-((methyl(phenethyl)amino)methyl)-1H-pyrazol-1-yl)phenyl)-6,7,8,9-tetrahydro-5H-pyrimido[4,5-e][1,4]diazepin-5-one], the Ki lay in the range of 500 to 3000 nM in assay [1] (setting [3]), 500 to 3000 nM in assay [1] (setting [4]) and 100 to 500 nM in assay [2].

In the case of `CCNc1ncc2c(n1)N(C)CCN(c1cccc(-n3cnc(CN(C)Cc4ccccc4)c3)c1)C2=O` [Example 253, 6-(3-(4-((benzyl(methyl)amino)methyl)-1H-imidazol-1-yl)phenyl)-2-(ethylamino)-9-methyl-6,7,8,9-tetrahydro-5H-pyrimido[4,5-e][1,4]diazepin-5-one], the Ki in assay [1] (setting [3]), in assay [1] (setting [4]) and in assay [2] was 100 to 500 nM each time.

Take `CCNc1ncc2c(n1)N(C)CCN(c1cccc(-n3cnc(CN(C)CCc4ccccc4)c3)c1)C2=O` [Example 254, 2-(ethylamino)-9-methyl-6-(3-(4-((methyl(phenethyl)amino)methyl)-1H-imidazol-1-yl)phenyl)-6,7,8,9-tetrahydro-5H-pyrimido[4,5-e][1,4]diazepin-5-one]: the figures for the Ki in assay [1] (setting [3]), in assay [1] (setting [4]) and in assay [2] were 500 to 3000 nM, 500 to 3000 nM and 500 to 1000 nM, respectively.

On to `CCNc1ncc2c(n1)N(C)CCN(c1cccc(C3CCN(CCc4ccccc4)CC3)c1)C2=O` [Example 261, 2-(ethylamino)-9-methyl-6-(3-(1-phenethylpiperidin-4-yl)phenyl)-6,7,8,9-tetrahydro-5H-pyrimido[4,5-e][1,4]diazepin-5-one], for which the Ki in assay [1] (setting [3]), in assay [1] (setting [4]) and in assay [2] was 100 to 500 nM each time.

For `CCNc1ncc2c(n1)N(C)CCN(c1cccc(OCCN(C)Cc3ccccc3)c1)C2=O` [Example 264, 6-(3-(2-(benzyl(methyl)amino)ethoxy)phenyl)-2-(ethylamino)-9-methyl-6,7,8,9-tetrahydro-5H-pyrimido[4,5-e][1,4]diazepin-5-one], the Ki in assay [1] (setting [3]), in assay [1] (setting [4]) and in assay [2] was 100 to 500 nM in each case.

In the case of `CCNc1ncc2c(n1)N(C)CCN(c1cccc(OCCN(C)CCc3ccccc3)c1)C2=O` [Example 265, 2-(ethylamino)-9-methyl-6-(3-(2-(methyl(phenethyl)amino)ethoxy)phenyl)-6,7,8,9-tetrahydro-5H-pyrimido[4,5-e][1,4]diazepin-5-one], the Ki in assay [1] (setting [3]), in assay [1] (setting [4]) and in assay [2] was 100 to 500 nM in each case.

Regarding `CSc1ncc2c(n1)N(C)CCN(c1cccc(COC3(c4ccccc4)CCN(C)CC3)c1)C2=O` [Example 271, 9-methyl-6-(3-(((1-methyl-4-phenylpiperidin-4-yl)oxy)methyl)phenyl)-2-(methylthio)-6,7,8,9-tetrahydro-5H-pyrimido[4,5-e][1,4]diazepin-5-one], the Ki in assay [1] (setting [3]) was > 3000 nM; in assay [1] (setting [4]), > 3000 nM; in assay [2], > 1000 nM.

With `CCNc1ncc2c(n1)N(C)CCN(c1cccc(-n3cc(CN4CCC(c5ccccc5)CC4)nn3)c1)C2=O` [Example 278, 2-(Ethylamino)-9-methyl-6-(3-(4-((4-phenylpiperidin-1-yl)methyl)-1H-1,2,3-triazol-1-yl)phenyl)-6,7,8,9-tetrahydro-5H-pyrimido[4,5-e][1,4]diazepin-5-one], the Ki is 500 to 3000 nM in assay [1] (setting [3]), 500 to 3000 nM in assay [1] (setting [4]) and < 100 nM in assay [2].

Turning to `CCNc1ncc2c(n1)N(C)CCN(c1cccc(-n3cc(CN4CCCCC4)nn3)c1)C2=O` [Example 281, 2-(ethylamino)-9-methyl-6-(3-(4-(piperidin-1-ylmethyl)-1H-1,2,3-triazol-1-yl)phenyl)-6,7,8,9-tetrahydro-5H-pyrimido[4,5-e][1,4]diazepin-5-one], the Ki in assay [1] (setting [3]), in assay [1] (setting [4]) and in assay [2] was 100 to 500 nM each time.

As to `CCNc1ncc2c(n1)N(C)CCN(c1cccc(-n3cc(CNCC4CC4)nn3)c1)C2=O` [Example 285, 6-(3-(4-(((cyclopropylmethyl)amino)methyl)-1H-1,2,3-triazol-1-yl)phenyl)-2-(ethylamino)-9-methyl-6,7,8,9-tetrahydro-5H-pyrimido[4,5-e][1,4]diazepin-5-one], the Ki in assay [1] (setting [3]), in assay [1] (setting [4]) and in assay [2] was 100 to 500 nM in each case.

The values are drawn from US10590140B2, “Tetrahydropyrimidodiazepine and dihydropyridodiazepine compounds for treating pain and pain related conditions” (ESTEVE PHARMACEUTICALS, S.A., priority 2016, dated 2020).
